Measured values as given in ChEMBL document CHEMBL5380807, “Imidazo[1,2-a]Pyridine Derivatives as Novel Dual-Target Inhibitors of ABCB1 and ABCG2 for Reversing Multidrug Resistance” (J Med Chem, 2023).
Active and inactive are the calls of the source. The calls are words filed in the database; no cut-off is given here.

Columns and labels:
K562 [1] = test: Reversal of ABCB1 mediated adriamycin resistance in human K562 cells assessed as reduction in survival rate at 1 uM preincubated for 1 hrs followed by adriamycin addition and measured after 72 hrs by MTS assay; assay type: functional, cell-based; details: time 73.0 hrs
K562/A02 [2] = test: Reversal of ABCB1 mediated adriamycin resistance in human K562/A02 cells overexpressing ABCB1 assessed as reduction in survival rate at 5 uM preincubated for 1 hrs followed by adriamycin addition and measured after 72 hrs by MTS assay; assay type: functional
K562 [3] = test: Reversal of ABCB1 mediated adriamycin resistance in human K562 cells assessed as reduction in survival rate at 5 uM preincubated for 1 hrs followed by adriamycin addition and measured after 72 hrs by MTS assay; assay type: functional, cell-based; details: time 73.0 hrs
K562 [4] = test: Reversal of ABCB1 mediated adriamycin resistance in human K562 assessed as decrease in survival rate at 1.25 to 5 uM preincubated for 1 hrs followed by adriamycin addition and measured after 72 hrs by MTS assay; assay type: functional, cell-based; details: dose 1.25-5 µM, time 73.0 hrs
[5] = Cytotoxicity against human K562/A02 cells overexpressing ABCB1 assessed as decrease in cell survival rate incubated for 72 hrs by MTS assay; assay type: toxicity, cell-based
K562/A02 [6] = test: Reversal of ABCB1 mediated adriamycin resistance in human K562/A02 cells overexpressing ABCB1 assessed as reduction in survival rate at 1 uM preincubated for 1 hrs followed by adriamycin addition and measured after 72 hrs by MTS assay; assay type: functional
[7] = Cytotoxicity against human K562 cells assessed as decrease in cell survival rate incubated for 72 hrs by MTS assay; assay type: toxicity, cell-based
K562/A02 [8] = test: Reversal of ABCB1 mediated adriamycin resistance in human K562/A02 overexpressing ABCB1 assessed as decrease in survival rate at 1.25 to 5 uM preincubated for 1 hrs followed by adriamycin addition and measured after 72 hrs by MTS assay; assay type: functional, cell-based; details: dose 1.25-5 µM, time 73.0 hrs
K562 [9] = test: Cytotoxicity against human K562 cells assessed as decrease in cell survival rate at 5 uM incubated for 72 hrs by MTS assay; assay type: toxicity, cell-based; details: k562, 72 h
K562/A02 [10] = test: Cytotoxicity against human K562/A02 cells overexpressing ABCB1 assessed as decrease in cell survival rate at 5 uM incubated for 72 hrs by MTS assay; assay type: toxicity, cell-based; details: k562/a02, 72 h
HEK293 [11] = test: Reversal of ABCG2 mediated mitoxantrone resistance in human HEK293 overexpressing ABCG2 assessed as decrease in survival rate at 1.25 to 5 uM preincubated for 1 hrs followed by mitoxantrone addition and measured after 72 hrs by SRB assay; assay type: functional, cell-based; details: dose 1.25-5 µM, time 73.0 hrs
K562/A02 [12] = test: Reversal of ABCB1 mediated adriamycin resistance in human K562/A02 overexpressing ABCB1 assessed as decrease in survival rate at 5 uM preincubated for 1 hrs followed by adriamycin addition and measured after 72 hrs by MTS assay; assay type: functional
[13] = Cytotoxicity against human HEK293 cells assessed as reduction in cell viability incubated for 72 hrs by SRB assay; assay type: toxicity, cell-based
[14] = Cytotoxicity against human HEK293 cells expressing ABCG2 assessed as reduction in cell viability incubated for 72 hrs by SRB assay; assay type: toxicity, cell-based
HEK293 [15] = test: Reversal of ABCG2 mediated mitoxantrone resistance in human HEK293 assessed as decrease in survival rate at 1.25 to 5 uM preincubated for 1 hrs followed by mitoxantrone addition and measured after 72 hrs by SRB assay; assay type: functional, cell-based; details: dose 1.25-5 µM, time 73.0 hrs
[16] = molecular target: ATP-dependent translocase ABCB1 (Homo sapiens, UniProt P08183); test: Inhibition of ABCB1 (unknown origin) ATPase activity assessed as decrease in luminescence by firefly luciferase reporter assay
ATP-dependent translocase ABCB1, sequence (P08183 whole entry): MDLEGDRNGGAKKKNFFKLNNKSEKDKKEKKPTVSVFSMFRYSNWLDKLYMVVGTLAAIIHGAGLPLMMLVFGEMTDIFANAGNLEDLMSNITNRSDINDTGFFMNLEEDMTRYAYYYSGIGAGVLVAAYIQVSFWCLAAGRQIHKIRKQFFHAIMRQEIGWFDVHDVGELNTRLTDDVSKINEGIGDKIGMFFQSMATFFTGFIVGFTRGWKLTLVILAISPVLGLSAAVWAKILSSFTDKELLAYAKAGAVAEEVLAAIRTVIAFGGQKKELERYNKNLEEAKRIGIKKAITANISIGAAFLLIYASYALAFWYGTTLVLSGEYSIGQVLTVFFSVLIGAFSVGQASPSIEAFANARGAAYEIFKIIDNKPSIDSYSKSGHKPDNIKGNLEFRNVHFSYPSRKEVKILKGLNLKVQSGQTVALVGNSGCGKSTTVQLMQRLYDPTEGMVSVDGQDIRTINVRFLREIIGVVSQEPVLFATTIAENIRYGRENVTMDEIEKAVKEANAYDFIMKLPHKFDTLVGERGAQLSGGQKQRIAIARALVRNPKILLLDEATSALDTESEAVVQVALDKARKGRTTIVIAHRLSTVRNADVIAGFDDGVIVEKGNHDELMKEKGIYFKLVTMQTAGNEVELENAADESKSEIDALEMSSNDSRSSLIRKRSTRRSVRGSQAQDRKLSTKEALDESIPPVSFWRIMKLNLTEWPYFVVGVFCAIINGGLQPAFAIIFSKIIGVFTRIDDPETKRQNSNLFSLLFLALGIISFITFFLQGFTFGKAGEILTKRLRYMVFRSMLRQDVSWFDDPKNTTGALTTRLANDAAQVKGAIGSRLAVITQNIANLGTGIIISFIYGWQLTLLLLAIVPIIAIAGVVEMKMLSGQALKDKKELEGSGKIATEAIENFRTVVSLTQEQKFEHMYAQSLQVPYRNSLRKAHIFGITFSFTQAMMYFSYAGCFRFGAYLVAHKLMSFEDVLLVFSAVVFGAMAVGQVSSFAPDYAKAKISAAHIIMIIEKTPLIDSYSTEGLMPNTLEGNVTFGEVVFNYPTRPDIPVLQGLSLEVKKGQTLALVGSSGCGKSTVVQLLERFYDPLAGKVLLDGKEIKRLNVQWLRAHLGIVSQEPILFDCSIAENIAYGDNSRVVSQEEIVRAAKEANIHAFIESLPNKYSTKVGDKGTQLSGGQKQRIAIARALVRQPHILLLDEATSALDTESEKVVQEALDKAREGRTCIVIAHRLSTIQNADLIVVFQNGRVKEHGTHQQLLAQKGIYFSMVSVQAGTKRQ

[17] = molecular target: T1, Broad substrate specificity ATP-binding cassette transporter ABCG2 (Homo sapiens, UniProt Q9UNQ0); test: Inhibition of ABCG2 (unknown origin) ATPase activity assessed as decrease in luminescence by firefly luciferase reporter assay
T1 sequence (Q9UNQ0 whole entry): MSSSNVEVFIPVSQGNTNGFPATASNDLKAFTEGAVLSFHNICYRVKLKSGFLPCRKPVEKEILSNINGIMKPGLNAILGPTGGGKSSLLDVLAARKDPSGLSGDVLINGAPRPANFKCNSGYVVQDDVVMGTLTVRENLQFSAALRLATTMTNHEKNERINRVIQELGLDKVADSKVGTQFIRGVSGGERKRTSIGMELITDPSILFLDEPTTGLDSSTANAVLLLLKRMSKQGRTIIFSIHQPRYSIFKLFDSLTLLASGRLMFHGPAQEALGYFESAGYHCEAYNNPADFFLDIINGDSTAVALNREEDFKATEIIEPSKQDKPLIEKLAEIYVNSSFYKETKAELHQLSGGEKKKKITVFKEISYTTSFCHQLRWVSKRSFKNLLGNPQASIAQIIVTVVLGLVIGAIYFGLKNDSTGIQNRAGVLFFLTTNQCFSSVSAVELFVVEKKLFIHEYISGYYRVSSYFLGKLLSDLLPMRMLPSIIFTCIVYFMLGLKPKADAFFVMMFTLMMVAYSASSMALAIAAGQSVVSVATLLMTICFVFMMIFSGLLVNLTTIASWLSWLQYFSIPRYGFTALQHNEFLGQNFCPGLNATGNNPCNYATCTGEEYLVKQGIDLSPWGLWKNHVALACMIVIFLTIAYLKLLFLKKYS

K562/A02 [18] = test: (§1) Antitumor activity against human K562/A02 cells overexpressing ABCB1 xenografted in BALB/c mouse assessed as tumor growth inhibition at 1 mg/kg, ip BW for 14 days; assay type: functional, organism-based; details: time 14.0 day
[19] = Toxicity in BALB/c mouse xenografted with human K562/A02 cells overexpressing ABCB1 assessed as body weight loss at 1 mg/kg, ip BW for 14 days in presence of verapamil; assay type: organism-based; details: in vivo, 336 h, time 14 day
[20] = Toxicity in BALB/c mouse xenografted with human K562/A02 cells overexpressing ABCB1 assessed as body weight loss at 1 mg/kg, ip BW for 14 days; assay type: organism-based; details: in vivo, 336 h, time 14 day
[21] = Toxicity in BALB/c mouse xenografted with human K562/A02 cells overexpressing ABCB1 assessed as body weight loss at 1 mg/kg, ip BW for 14 days in presence of N-(4-(3-((4-Phenyipiperazin-1-yl)methyl)imidazo[l,2-a]pyridin-2-yl)phenyl)-2-(4-(4-(trifluoromethoxy)phenyl)piperazin-1-yl)acetamide; assay type: organism-based; details: in vivo, 336 h, time 14 day
K562/A02 [22] = test: as §1, with “days in presence of N-(4-(3-((4-Phenyipiperazin-1-yl)methyl)imidazo[l,2-a]pyridin-2-yl)phenyl)-2-(4-(4-(trifluoromethoxy)phenyl)piperazin-1-yl)acetamide” for “days”; assay type: functional, organism-based; details: time 14.0 day
[23] = Toxicity in BALB/c mouse xenografted with human K562 cells assessed as body weight loss at 1 mg/kg, ip BW for 14 days in presence of N-(4-(3-((4-Phenyipiperazin-1-yl)methyl)imidazo[l,2-a]pyridin-2-yl)phenyl)-2-(4-(4-(trifluoromethoxy)phenyl)piperazin-1-yl)acetamide; assay type: organism-based; details: in vivo, 336 h, time 14 day
K562 [24] = test: Antitumor activity against human K562 cells xenografted in BALB/c mouse assessed as tumor growth inhibition at 1 mg/kg, ip BW for 14 days; assay type: functional, organism-based; details: time 14.0 day
K562 [25] = test: Antitumor activity against human K562 cells xenografted in BALB/c mouse assessed as tumor growth inhibition at 1 mg/kg, ip BW for 14 days in presence of verapamil; assay type: functional, organism-based; details: time 14.0 day
[26] = Toxicity in BALB/c mouse xenografted with human K562 cells assessed as body weight loss at 1 mg/kg, ip BW for 14 days; assay type: organism-based; details: in vivo, 336 h, time 14 day
K562 [27] = test: Antitumor activity against human K562 cells xenografted in BALB/c mouse assessed as tumor growth inhibition at 1 mg/kg, ip BW for 14 days in presence of N-(4-(3-((4-Phenyipiperazin-1-yl)methyl)imidazo[l,2-a]pyridin-2-yl)phenyl)-2-(4-(4-(trifluoromethoxy)phenyl)piperazin-1-yl)acetamide; assay type: functional, organism-based; details: time 14.0 day
[28] = Toxicity in BALB/c mouse xenografted with human K562 cells assessed as body weight loss at 1 mg/kg, ip BW for 14 days in presence of verapamil; assay type: organism-based; details: in vivo, 336 h, time 14 day

Row | Compound | Activity (K562 [1]) | Activity (K562 [3]) | Activity (K562 [4]) | IC50 at 72 h [5] [µM] | IC50 at 72 h [7] [µM] | Activity (K562/A02 [8]) | Activity (K562 [9]) | Activity (K562/A02 [10]) | IC50 at 72 h [13] [µM] | IC50 at 72 h [14] [µM] | Activity (K562/A02 [2]; time 73.0 hrs) | Activity (K562/A02 [6]; time 73.0 hrs) | also measured
1 | COc1cc2c(cc1OC)CN(CC(=O)Nc1ccc(-c3nc4ccccn4c3CN3CCN(c4ccccc4)CC3)cc1)CC2 | inactive | inactive | inactive | > 100 | > 100 | Active | Non-Toxic | Non-Toxic | – | – | – | – | Activity (K562/A02 [2]; time 73 hrs): 33%; Activity (K562/A02 [6]; time 73 hrs): 59%
2 | C=CCN(CC=C)CC(=O)Nc1ccc(-c2nc3ccccn3c2CN2CCN(c3ccccc3)CC2)cc1 | – | – | inactive | > 100 | > 100 | Active | – | – | 11.8 | 18.5 | – | – | Activity (HEK293 [11]): Active; Activity (K562/A02 [12]): <30%; Activity (HEK293 [15]): inactive
3 | C=CCN(CC=C)CC(=O)Nc1ccc(-c2nc3ccccn3c2CN2CCc3cc(OC)c(OC)cc3C2)cc1 | – | – | inactive | 65.2 | 45.3 | Active | – | – | 37.6 | 11.5 | – | – | Activity (HEK293 [11]): Active; Activity (K562/A02 [12]): <30%; Activity (HEK293 [15]): inactive
4 | SODIUM VANADATE | – | – | – | – | – | – | – | – | – | – | – | – | inhibition (INH) [16]: Active; inhibition (INH) [17]: Active
5 | O=C1c2c(O)ccc(O)c2C(=O)c2c(NCCNCCO)ccc(NCCNCCO)c21 [MITOXANTRONE] | – | – | – | – | – | – | – | – | 0.04 | 1.72 | – | – | –
6 | COc1cc2c(cc1OC)CN(CC(=O)Nc1ccc(-c3nc4ccccn4c3CNCc3ccccc3)cc1)CC2 | inactive | inactive | – | – | – | – | Non-Toxic | 59.82% | – | – | Active | Active | –
7 | COc1cc2c(cc1OC)CN(CC(=O)Nc1ccc(-c3nc4ccccn4c3CN(C)C)cc1)CC2 | inactive | inactive | – | – | – | – | Non-Toxic | Non-Toxic | – | – | Active | Active | –
8 | COc1cc2c(cc1OC)CN(CC(=O)Nc1ccc(-c3nc4ccccn4c3CN3CCOCC3)cc1)CC2 | Active | Active | – | – | – | – | Non-Toxic | Non-Toxic | – | – | Active | Active | –
9 | COc1cccc2c1C(=O)c1c(O)c3c(c(O)c1C2=O)C[C@@](O)(C(=O)CO)C[C@@H]3O[C@H]1C[C@H](N)[C@H](O)[C@H](C)O1.Cl [DOXORUBICIN HYDROCHLORIDE] | – | – | – | 58.6 | – | – | – | – | – | – | – | – | Activity (K562/A02 [18]): inactive; Activity [19]: Non-Toxic; Activity [20]: Non-Toxic; Activity [21]: Non-Toxic; Activity (K562/A02 [22]): Active; Activity [23]: Non-Toxic; Activity (K562 [24]): Active; Activity (K562 [25]): inactive; Activity [26]: Toxic; Activity (K562 [27]): inactive; Activity [28]: Non-Toxic
